What was measured:
LmGSTD7 = target: T1, LmGSTD7 (Locusta migratoria, UniProt V9Q328); assay: spectrophotometric GST assay, steady state; assay type: biochemical; settings: co-substrate GSH; pH and temperature not given; read-out: K m ^CDNB
T1 construct: gene GSTd7; full-length ORF in pET28a, E. coli BL21(DE3), His-tag Ni-NTA purified
T1 sequence (V9Q328 1-233): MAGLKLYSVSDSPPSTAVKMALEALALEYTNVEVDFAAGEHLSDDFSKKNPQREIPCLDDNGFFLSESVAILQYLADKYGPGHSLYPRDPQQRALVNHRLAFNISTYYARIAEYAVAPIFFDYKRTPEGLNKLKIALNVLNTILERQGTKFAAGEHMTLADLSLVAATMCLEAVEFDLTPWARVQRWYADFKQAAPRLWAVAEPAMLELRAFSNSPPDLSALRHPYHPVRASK
Description: spectrophotometric GST assay, steady state on LmGSTD7

LmGSTT2 = target: T2, LmGSTT2 (Locusta migratoria, UniProt V9Q331); assay: spectrophotometric GST assay, steady state; assay type: biochemical; settings: co-substrate GSH; pH and temperature not given; read-out: K m ^CDNB
T2 construct: gene GSTt2; full-length ORF in pET28a, E. coli BL21(DE3), His-tag Ni-NTA purified
T2 sequence (V9Q331 1-231): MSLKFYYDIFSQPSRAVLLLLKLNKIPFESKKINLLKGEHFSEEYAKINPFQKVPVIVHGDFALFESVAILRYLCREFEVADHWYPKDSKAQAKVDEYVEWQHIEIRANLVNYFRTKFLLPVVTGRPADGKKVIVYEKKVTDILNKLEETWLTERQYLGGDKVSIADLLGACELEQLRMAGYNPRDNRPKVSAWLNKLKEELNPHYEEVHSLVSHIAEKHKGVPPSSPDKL
Description: spectrophotometric GST assay, steady state on LmGSTT2

## O=[N+]([O-])c1ccc(Cl)c([N+](=O)[O-])c1 [CDNB]
LmGSTD7
  Km: 492 ± 39 µM
LmGSTT2
  Km: 393 ± 49 µM
